# Article PMC9167697 (Clinical cancer research : an official journal of the …, 2022)
# pKi: −log10 of the molar value.
# What was measured:
# human A2AR = conditions: cited from earlier work
# [1] = tested on: advanced/metastatic NSCLC; assay: Tumor response; type: in vivo, human
# A2AR = conditions: cells transfected with A2AR; cited from earlier work
# [2] = tested on: patients with advanced NSCLC; assay: Safety, tolerability, DLT and MTD in the phase I/Ib dose-escalation study; type: in vivo
# [3] = Plasma pharmacokinetics of taminadenant in the phase I/Ib study; type: in vivo, human
# mouse xenograft models = conditions: cited from earlier work
# [4] = investigator-assessed, RECIST v1.1, n=25
smiles,measurement,setting,value
Nc1nc(-n2cccn2)nc(-n2cccn2)c1Br [Taminadenant],"in vitro binding affinity to human A2AR, as concentration",human A2AR,3.67 ng/mL
same,pKi,human A2AR; read-out: in vitro binding affinity to human A2AR,7.92
same,Disease control rate,"[1]; CR + PR + SD, based on the number of evaluable patients",42.9 (21.8–66.0) % (95% CI)
same,Overall response rate,"[1]; CR + PR, based on the number of evaluable patients",9.5 (1.2–30.4) % (95% CI)
same,median estimate of OS,[1]; Kaplan-Meier,9.7 months
same,median estimate of PFS,"[1]; Kaplan-Meier, RECIST v1.1",3.9 months
same,Best overall response: Complete response,[1]; [4],1 (4.0) n (%)
same,Best overall response: Non-evaluable,[1]; [4],4 (16.0) n (%)
same,Best overall response: Partial response,[1]; [4],1 (4.0) n (%)
same,Best overall response: Progressive disease,[1]; [4],12 (48.0) n (%)
same,Best overall response: Stable disease,[1]; [4],7 (28.0) n (%)
same,patients who achieved disease control,[1]; of all 25 patients per group,36.0%
same,duration of complete response,"[1]; one patient each, single agent 480 mg, combination 160 mg taminadenant",1.1 months
same,duration of disease control in a patient with stable disease,"[1]; one patient, 160 mg, on treatment at data cut-off",36.7 months
same,effect on cyclic adenosine monophosphate accumulation,A2AR,inhibition of cyclic adenosine monophosphate accumulation
same,dose delays or interruptions,"[2]; human, in vivo",13 patients
same,patients who discontinued due to adverse events,"[2]; human, in vivo",12.0%
same,patients with Grade 3/4 TRAEs,"[2]; human, in vivo",16.0%
same,patients with treatment-related adverse events (TRAEs) of any grade,"[2]; human, in vivo",84.0%
same,patients with treatment-related fatigue,"[2]; human, in vivo",20.0%
same,patients with treatment-related gastroesophageal reflux disease,"[2]; human, in vivo",24.0%
same,patients with treatment-related nausea,"[2]; human, in vivo",44.0%
same,patients with treatment-related vomiting,"[2]; human, in vivo",20.0%
same,dose delays due to TRAEs,[2]; in vivo,five
same,"patients reporting at least one adverse event, regardless of causality",[2]; in vivo,All patients
same,tolerability,[2]; in vivo,well tolerated
same,on-study deaths,"[2]; n=25 per group, none related to study treatment",8.0%
same,maximum tolerated dose (MTD) of taminadenant,"[2]; oral, combination with 400 mg spartalizumab Q4W",480 mg BID
same,Vd/F,"[3]; human, in vivo",114 to 1520 L
same,apparent clearance (CL/F) upon repeated daily dosing compared with a single dose,"[3]; human, in vivo",notably decreased
same,time to maximum plasma drug concentration (Cmax),"[3]; human, in vivo, po",0.5 to 3 h
same,differences in taminadenant PK between the single-agent and combination group,[3]; large inter-individual variability in Cmax and AUC,no notable differences
same,accumulation relative to a single dose,"[3]; repeated daily doses, after 1 week",approximately 3 fold
same,"increase of systemic exposure (Cmax, AUC) with escalating doses",[3]; single and multiple doses from 80 mg to 640 mg,more-than-proportional
same,effect on tumor growth,mouse xenograft models,significantly reduced tumor growth
